According to patent US6677354B2, “Piperdines for use as orexin receptor antagonists” (SmithKline Beecham p.l.c., priority 2000, dated 2004):

Key:
orexin receptors = test: Rat sleep/EEG studies after central administration; type: in vivo; settings: central administration at the onset of the normal sleep period
Text: Therefore antagonists of its receptor may be useful in the treatment of sleep disorders including insomnia.

[1] = test system: food intake in freely-feeding rats; settings: central administration, 4 hour time period; cited from earlier work

For “orexin-A: "orexin-A, an agonist of the orexin receptors"; "Human orexin-A has the amino acid sequence: pyroGlu Pro Leu Pro Asp Cys Cys Arg Gln Lys Thr Cys..."”, the “effect on arousal and sleep” value (orexin receptors) is given as “dose-related increase in arousal” and the “increase in food intake over control rats receiving vehicle” value [1] is given as “approximately four-fold”.
